In this assay the test system is FLU A (PR/8/34). Description: Flu A Neuraminidase Antiviral Assay. The format is cell-based.

The term EC50 denotes the concentration at which the effect is half-maximal. A lower EC50 goes with greater potency.

Read-outs that look alike come from different tables or passages of the source. Where only a bound is given, the exact number is not on record here.

With `CN1C(=O)c2c(O)c(=O)c(C#N)cn2N2C(c3ccccc3)C(CC(F)(F)F)CCC12` (stereo not shown) [Compound 133, 7-hydroxy-5-methyl-6,8-dioxo-1-phenyl-2-(2,2,2-trifluoroethyl)-1,2,3,4,4a,5,6,8-octahydrodipyrido[1,2-b:2′,1′-f][1,2,4]triazine-9-carbonitrile], under “MDCK, 48 h”, the EC50 was > 810 nM.

Consider `CN1C(=O)c2c(O)c(=O)ccn2N2C1CCC1(CCC(F)(F)CC1)C2c1ccccc1` (single isomer, unassigned) [Compound 72A, 4,4-difluoro-7′-hydroxy-5′-methyl-1′-phenyl-3′,4′,4a′,5′-tetrahydro-1′H-spiro[cyclohexane-1,2′-dipyrido[1,2-b:2′,1′-f][1,2,4]triazine]-6′,8′-dione], for which the EC50 was > 810 nM.

Regarding `CN1C(=O)c2c(O)c(=O)ccn2N2C(c3ccc(F)cc3)CCCC12` (single isomer, unassigned) [Compound 2A, 1-(4-fluorophenyl)-7-hydroxy-5-methyl-1,2,3,4,4a,5-hexahydrodipyrido[1,2-b:2′,1′-f][1,2,4]triazine-6,8-dione], the EC50 was found to be 109 nM.

In the case of `CN1C(=O)c2c(O)c(=O)ccn2N2C(c3ccccc3)C(O)CCC12` (single isomer, unassigned) [Compound 135A, 2,7-dihydroxy-5-methyl-1-phenyl-1,2,3,4,4a,5-hexahydrodipyrido[1,2-b:2′,1′-f][1,2,4]triazine-6,8-dione], the response (MDCK, 48 h) was half-maximal at 428 nM (EC50).

Regarding `CN1C(=O)c2c(O)c(=O)ccn2N2C(c3ccccc3)C3CCCC(C3)C12` (single isomer, unassigned) [Compound 11B, 4-hydroxy-6-methyl-12-phenyl-6,6a,7,8,9,10,11,12-octahydro-7,11-methanopyrido[1′,2′:1,6][1,2,4]triazino[2,3-a]azocine-3,5-dione], the EC50 was > 8100 nM.

Compound `Cc1ccccc1C1N2C(CCC13CCC(F)(F)CC3)N(C)C(=O)c1c(O)c(=O)ccn12` (single isomer, unassigned) [Compound 70A, 4,4-difluoro-7′-hydroxy-5′-methyl-1′-(o-tolyl)-3′,4′,4a′,5′-tetrahydro-1′H-spiro[cyclohexane-1,2′dipyrido[1,2-b:2′,1′-f][1,2,4]triazine]-6′,8′-dione] yielded an EC50 of 299 nM.

For `Cc1cccc(C2(C)CCCC3N(CC(F)F)C(=O)c4c(O)c(=O)ccn4N32)n1` (single isomer, unassigned) [Compound 54B, 5-(2,2-difluoroethyl)-7-hydroxy-1-methyl-1-(6-methylpyridin-2-yl)-1,2,3,4,4a,5-hexahydrodipyrido[1,2-b:2′,1′-f][1,2,4]triazine-6,8-dione], the EC50 came to 24.9 nM.

Compound `CN1C(=O)c2c(O)c(=O)ccn2N2C1CCC1(CC(F)(F)C1)C2c1ccccc1` (single isomer, unassigned) [Compound 74B, 3,3-difluoro-7′-hydroxy-5′-methyl-1′-phenyl-3′,4′,4a′,5′-tetrahydro-1′H-spiro[cyclobutane-1,2′-dipyrido[1,2-b:2′,1′-f][1,2,4]triazine]-6′,8′-dione] came in with an EC50 of 15.7 nM.

Compound `CN1C(=O)c2c(O)c(=O)ccn2N2C1CCC1(CC(F)(F)C1)C2c1ccccc1` (single isomer, unassigned) [Compound 74D, 3,3-difluoro-7′-hydroxy-5′-methyl-1′-phenyl-3′,4′,4a′,5′-tetrahydro-1′H-spiro[cyclobutane-1,2′-dipyrido[1,2-b:2′,1′-f][1,2,4]triazine]-6′,8′-dione] showed an EC50 of 442 nM.

On to `CCN1C(=O)c2c(O)c(=O)ccn2N2C(c3ccccc3Br)C(CC(F)(F)F)CCC12` (single isomer, unassigned) [Compound 106A, 1-(2-bromophenyl)-5-ethyl-7-hydroxy-2-(2,2,2-trifluoroethyl)-1,2,3,4,4a,5-hexahydrodipyrido[1,2-b:2′,1′-f][1,2,4]triazine-6,8-dione], for which the response was half-maximal at 6.4 nM (EC50).

Source of the values: US20240018145A1, “[…]-DEPENDENT EN[…] TREATING OR […]” (priority 2020, published 2024).
